Measurements published in patent publication US11160788B2, “Caspase-1 inhibition and uses thereof for prevention and treatment of neurological conditions” (priority 2016, dated 2021).

Legend:
[1] = biological target: T1, recombinant human Casp1 (Homo sapiens, UniProt P29466); experiment: Caspase inhibition IC50, recombinant human Casp1; type: biochemical; settings: read-out: IC50 against human Casp1
T1 sequence (P29466 120-297 limits assumed): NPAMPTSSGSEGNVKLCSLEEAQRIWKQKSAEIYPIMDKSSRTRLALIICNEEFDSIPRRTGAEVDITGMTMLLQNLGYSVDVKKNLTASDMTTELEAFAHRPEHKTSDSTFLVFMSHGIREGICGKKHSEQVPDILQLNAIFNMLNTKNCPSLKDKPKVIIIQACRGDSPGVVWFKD
T1 sequence (P29466 317-404 limits assumed): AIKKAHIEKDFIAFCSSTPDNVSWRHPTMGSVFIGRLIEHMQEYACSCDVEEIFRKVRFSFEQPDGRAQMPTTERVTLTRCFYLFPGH
Method: (§1) FIG. 14: Selectivity and blood brain permeability of VX-765 and VRT-043198. (a-b) IC50 of VX-765 (a) and VRT-043198 (b) against human Casp1-10. (c-d) IC50 of VX-765 (c) and VRT-043198 (d) against mouse Casp1 and Casp11. (e) Blood brain barrier permeability and presence of VX-765 and VRT-043198 in 3 wild type and 4 J20 mice brain cortex and hippocampus and in plasma. Ratios of brain levels to plasma levels are calculated.

[2] = biological target: T2, mouse recombinant Casp1 (Mus musculus, UniProt P29452); experiment: Caspase inhibition IC50, mouse recombinant Casp1; type: biochemical; settings: read-out: IC50 against mouse Casp1
T2 sequence (P29452 119-296 limits assumed): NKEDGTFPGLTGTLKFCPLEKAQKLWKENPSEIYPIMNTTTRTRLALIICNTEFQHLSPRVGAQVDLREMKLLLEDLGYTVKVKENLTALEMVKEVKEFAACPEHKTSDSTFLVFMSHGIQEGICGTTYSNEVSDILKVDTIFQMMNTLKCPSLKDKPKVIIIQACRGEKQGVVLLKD
T2 sequence (P29452 315-402 limits assumed): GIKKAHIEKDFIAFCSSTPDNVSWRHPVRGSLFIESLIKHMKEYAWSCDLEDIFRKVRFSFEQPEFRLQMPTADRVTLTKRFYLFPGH
Method: as §1

[3] = system: APP^WT-transfected human primary neurons; experiment: Neuritic beading in APPWT-transfected human primary neurons; type: cell-based
Method: (§2) FIG. 13: VX-765 protects CNS primary human neurons (HPN) against APP- or serum deprivation-mediated neuritic beading. (a) MTT assay with increasing dose of VX-765. (b) Fluorescent micrographs showing homogeneous distribution of EGFP in normal neurons and neuritic beading in APP-transfected neurons. (c) Percentage beading in APP-transfected or serum-deprived neurons treated 1 h before and continuously with stressor (Pre-treatment) or 48 h after stressor (post-beading treatment) with 25 or 50 μM VX-765 or with 5 μM Z-YVAD-fmk Casp1 peptide inhibitor. […] (d-e) HPN secreted or cellular Aβ42/total Aβ38+40+42 (d) (F(3,4)=12.73, p=0.0163, ANOVA, Dunnett's post-hoc compared to Serum+DMSO, *p<0.05), and (e) levels of secreted II-1β, IFN-γ, TNF-α, and II-6 from untreated (+S), serum deprived (−S), or serum-deprived human neurons treated with 25 or 50 μM VX-765.
(§3) EGFP-labeled human primary neurons were either APP^WT transfected or serum deprived. Two treatment strategies were employed to determine VX-765's effects on neuronal degeneration: our Pre-Treatment strategy looked at whether VX-765 could block neuronal degeneration when administered 1 hr prior to APP^WT transfection or serum deprivation, while our Reversal Treatment strategy looked at whether VX-765 could reverse degenerative effects when administered 48 hrs after APP^WT transfection or serum deprivation. Neurons displaying beaded morphology were counted with live imaging and measured as a percentage of the total number of eGFP+ neurons from 24-72 hrs after treatment. The irreversible caspase-1 inhibitor YVAD-fmk was used as positive control in our experiments. Results were obtained from averaging counts for at least 100 eGFP+ neurons per experiment in three independent neuron preparations.

[4] = system: serum deprived human primary neurons; experiment: Neuritic beading in serum-deprived human primary neurons; type: cell-based; settings: reversal treatment 48 hrs after serum deprivation
Method: as §2, §3

| IC50 [1] [nM] | IC50 [2] [nM] | Compound | neuritic beading ([3]; pre-treatment 1 h before and continued, VX-765 25 and 50 μM, Z-YVAD-fmk 5 μM, 48 and 72 h) | neuritic beading ([3]; reversal (post-beading) treatment 48 hrs after APP^WT transfection, listed as YVAD) | neuritic beading ([3]; reversal (post-beading) treatment 48 hrs after APP^WT transfection, listed as YVAD-fmk) | neuritic beading [4] |
| --- | --- | --- | --- | --- | --- | --- |
| 9.91 | 18 | CC(C)(C)[C@H](NC(=O)c1ccc(N)c(Cl)c1)C(=O)N1CCC[C@H]1C(=O)N[C@H]1CC(=O)OC1O (stereo partly drawn) [VRT-043198, (2S)-1-((S)-2-(4-amino-3-chlorobenzamido)-3,3-dimethylbutanoyl)-N-((3S)-2-hydroxy-5-oxotetrahydrofuran-3-yl)pyrrolidine-2-carboxamide] |  |  |  |  |
|  |  | Z-YVAD-fmk | prevented neuritic beading | not able to reverse neuritic beading at any time-point | unable to reverse or prevent neuritic beading at any time-point | neither YVAD nor VX-765 were able to reverse neuritic beading |
